Test results from the supplement of paper PMC10307832.

Experiments:
Test in all cases: relative viability (nuclei count vs DMSO), 5 days (fraction); higher = more cells survive
A-427 = tested on: A-427
In short: (§1)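 One day after seeding in 1536-well plates, lung cancer cell lines were dosed by pin tool. Dosing was either single-drug or a fixed anchor-drug dose plus five library-drug doses (not always all listed) in √10 steps. After 5 days, nuclei were stained in one fix-and-stain step and counted on 4× images, and relative viability is the nuclei count of treated wells over that of vehicle wells, given as the median of duplicate plates.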

ABC-1 = tested on: ABC-1
In short: as §1

CAL-12T = tested on: CAL-12T
In short: as §1

COR-L 105 = tested on: COR-L 105
In short: as §1

COR-L23 = tested on: COR-L23
In short: as §1

HOP-62 = tested on: HOP-62
In short: as §1

LCLC-97TM1 = tested on: LCLC-97TM1
In short: as §1

LXF-289 = tested on: LXF-289
In short: as §1

NCI-H1437 = tested on: NCI-H1437
In short: as §1

NCI-H1651 = tested on: NCI-H1651
In short: as §1

NCI-H1915 = tested on: NCI-H1915
In short: as §1

NCI-H1993 = tested on: NCI-H1993
In short: as §1

NCI-H2009 = tested on: NCI-H2009
In short: as §1

NCI-H2023 = tested on: NCI-H2023
In short: as §1

NCI-H2342 = tested on: NCI-H2342
In short: as §1

NCI-H2347 = tested on: NCI-H2347
In short: as §1

NCI-H441 = tested on: NCI-H441
In short: as §1

NCI-H460 = tested on: NCI-H460
In short: as §1

NCI-H520 = tested on: NCI-H520
In short: as §1

NCI-H522 = tested on: NCI-H522
In short: as §1

NCI-H661 = tested on: NCI-H661
In short: as §1

NCI-H838 = tested on: NCI-H838
In short: as §1

PC-3 [JPC-3] = tested on: PC-3 [JPC-3]
In short: as §1

Oc1nc(-c2ccc(C(F)(F)F)cc2)nc2c1CSCC2 [XAV939] + O=C(c1cc(Cc2n[nH]c(=O)c3ccccc23)ccc1F)N1CCN(C(=O)C2CC2)CC1 [Olaparib] (partner 8 µM)
relative viability (A-427; first compound 0.08 µM): 0.785
relative viability (A-427; first compound 0.253 µM): 0.584
relative viability (A-427; first compound 0.8 µM): 0.706
relative viability (A-427; first compound 2.53 µM): 0.663
relative viability (ABC-1; first compound 0.253 µM): 0.792
relative viability (ABC-1; first compound 0.8 µM): 1.25
relative viability (ABC-1; first compound 2.53 µM): 0.61
relative viability (CAL-12T; first compound 0.08 µM): 0.788
relative viability (CAL-12T; first compound 0.253 µM): 0.699
relative viability (CAL-12T; first compound 0.8 µM): 0.689
relative viability (CAL-12T; first compound 2.53 µM): 0.654
relative viability (COR-L 105; first compound 0.08 µM): 0.57
relative viability (COR-L 105; first compound 0.253 µM): 0.486
relative viability (COR-L 105; first compound 0.8 µM): 0.494
relative viability (COR-L 105; first compound 2.53 µM): 0.561
relative viability (COR-L23; first compound 0.08 µM): 0.321
relative viability (COR-L23; first compound 0.253 µM): 0.386
relative viability (COR-L23; first compound 0.8 µM): 0.315
relative viability (COR-L23; first compound 2.53 µM): 0.29
relative viability (HOP-62; first compound 0.08 µM): 0.369
relative viability (HOP-62; first compound 0.253 µM): 0.351
relative viability (HOP-62; first compound 0.8 µM): 0.502
relative viability (HOP-62; first compound 2.53 µM): 0.371
relative viability (LCLC-97TM1; first compound 0.08 µM): 0.326
relative viability (LCLC-97TM1; first compound 0.253 µM): 0.425
relative viability (LCLC-97TM1; first compound 2.53 µM): 0.279
relative viability (LXF-289; first compound 0.08 µM): 1.13
relative viability (LXF-289; first compound 0.253 µM): 1.05
relative viability (LXF-289; first compound 0.8 µM): 1.08
relative viability (LXF-289; first compound 2.53 µM): 1.07
relative viability (NCI-H1437; first compound 0.08 µM): 0.631
relative viability (NCI-H1437; first compound 0.253 µM): 0.593
relative viability (NCI-H1437; first compound 0.8 µM): 0.558
relative viability (NCI-H1437; first compound 2.53 µM): 0.355
relative viability (NCI-H1651; first compound 0.08 µM): 0.181
relative viability (NCI-H1651; first compound 0.253 µM): 0.19
relative viability (NCI-H1651; first compound 0.8 µM): 0.205
relative viability (NCI-H1651; first compound 2.53 µM): 0.196
relative viability (NCI-H1915; first compound 0.08 µM): 0.247
relative viability (NCI-H1915; first compound 0.253 µM): 0.256
relative viability (NCI-H1915; first compound 0.8 µM): 0.239
relative viability (NCI-H1915; first compound 2.53 µM): 0.275
relative viability (NCI-H1993; first compound 0.08 µM): 1.01
relative viability (NCI-H1993; first compound 0.253 µM): 0.87
relative viability (NCI-H1993; first compound 0.8 µM): 1.1
relative viability (NCI-H1993; first compound 2.53 µM): 1.16
relative viability (NCI-H2009; first compound 0.08 µM): 0.918
relative viability (NCI-H2009; first compound 0.253 µM): 0.728
relative viability (NCI-H2009; first compound 0.8 µM): 0.641
relative viability (NCI-H2009; first compound 2.53 µM): 0.754
relative viability (NCI-H2023; first compound 0.08 µM): 0.531
relative viability (NCI-H2023; first compound 0.253 µM): 0.38
relative viability (NCI-H2023; first compound 0.8 µM): 0.463
relative viability (NCI-H2023; first compound 2.53 µM): 0.402
relative viability (NCI-H2342; first compound 0.08 µM): 0.47
relative viability (NCI-H2342; first compound 0.253 µM): 0.431
relative viability (NCI-H2342; first compound 0.8 µM): 0.376
relative viability (NCI-H2342; first compound 2.53 µM): 0.288
relative viability (NCI-H2347; first compound 0.08 µM): 0.667
relative viability (NCI-H2347; first compound 0.253 µM): 0.543
relative viability (NCI-H2347; first compound 0.8 µM): 0.569
relative viability (NCI-H2347; first compound 2.53 µM): 0.517
relative viability (NCI-H441; first compound 0.08 µM): 0.68
relative viability (NCI-H441; first compound 0.253 µM): 0.448
relative viability (NCI-H441; first compound 0.8 µM): 0.613
relative viability (NCI-H441; first compound 2.53 µM): 0.521
relative viability (NCI-H460; first compound 0.08 µM): 0.58
relative viability (NCI-H460; first compound 0.253 µM): 0.35
relative viability (NCI-H460; first compound 0.8 µM): 0.395
relative viability (NCI-H460; first compound 2.53 µM): 0.271
relative viability (NCI-H520; first compound 0.08 µM): 0.375
relative viability (NCI-H520; first compound 0.8 µM): 0.342
relative viability (NCI-H520; first compound 2.53 µM): 0.356
relative viability (NCI-H522; first compound 0.08 µM): 0.887
relative viability (NCI-H522; first compound 0.253 µM): 0.649
relative viability (NCI-H522; first compound 0.8 µM): 0.63
relative viability (NCI-H522; first compound 2.53 µM): 0.689
relative viability (NCI-H661; first compound 0.08 µM): 0.743
relative viability (NCI-H661; first compound 0.253 µM): 0.655
relative viability (NCI-H661; first compound 0.8 µM): 0.678
relative viability (NCI-H661; first compound 2.53 µM): 0.708
relative viability (NCI-H838; first compound 0.08 µM): 0.755
relative viability (NCI-H838; first compound 0.253 µM): 0.662
relative viability (NCI-H838; first compound 0.8 µM): 0.597
relative viability (NCI-H838; first compound 2.53 µM): 0.398
relative viability (PC-3 [JPC-3]; first compound 0.253 µM): 0.997
relative viability (PC-3 [JPC-3]; first compound 0.8 µM): 1.17
relative viability (PC-3 [JPC-3]; first compound 2.53 µM): 1.06
